Assay results reported in patent US20020137929A1, “1 - (3-heterocyclylphenyl) isothiourea, -isourea, -guanidine and -amidine herbicidal agents” (Intellectual Property Department, BASF Aktiengesellschaft, priority 1998, published 2002).

Columns and labels:
[1] = tested on: AMBEL (Ragweed, Common); experiment: Preemergence herbicidal evaluation; type: in vivo, Ambrosia artemisifolia; conditions: rated 4-5 weeks after treatment, rating scale 0-9
Procedure, shortened: (§1)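 Steps: mix seeds into potting soil; plant atop ~1 inch soil; spray compound in aqueous acetone (~0.0156-0.500 kg/ha equivalent); maintain in greenhouse with watering; rate visually 0-9 versus control at 4-5 weeks.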

[2] = tested on: GALAP (Galium); experiment: Preemergence herbicidal evaluation; type: in vivo, Galium aparine; conditions: rated 4-5 weeks after treatment, rating scale 0-9
Procedure, shortened: as §1

[3] = tested on: SAGPY (Arrowhead (Pygmaea)); experiment: Preemergence weed control under flooded paddy conditions; type: in vivo, Sagittaria pygmaea; conditions: rated 3-4 weeks after treatment
Procedure, shortened: (§2)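 Visual injury scored 0-9 against control three to four weeks post-treatment, greenhouse-grown. Application: acetone/water (50/50) solutions dosed directly into flood water (1.5-3 cm over silt loam, planted top 0.5 cm), roughly 0.0313 to 0.500 kg/ha active ingredient.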

[4] = tested on: ZEAMX (Corn, Field); experiment: Postemergence herbicidal evaluation; type: in vivo, Zea mays; conditions: postemergence
Procedure, shortened: (§3)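 Each compound, dispersed in an acetone/water mix (50/50) carrying 0.5% TWEEN 20, is nozzle-sprayed at 40 psi on approximately two-week-old seedlings at about 0.0156–0.500 kg/ha. Plants are assessed 4–5 weeks afterward on a 0–9 scale relative to control; duplicate tests are averaged.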

[5] = tested on: GLXMAW (Soybean, Williams); experiment: Postemergence herbicidal evaluation; type: in vivo, Glycine max, (L.) Merr. cv Williams; conditions: postemergence
Procedure, shortened: as §3

[6] = tested on: SETVI (Foxtail, Green); experiment: Preemergence herbicidal evaluation; type: in vivo, Setaria viridis; conditions: rated 4-5 weeks after treatment, rating scale 0-9
Procedure, shortened: as §1

[7] = tested on: CASOB (Sicklepod); experiment: Preemergence herbicidal evaluation; type: in vivo, Cassia obtusifolia; conditions: rated 4-5 weeks after treatment, rating scale 0-9
Procedure, shortened: as §1

[8] = tested on: IPOHE (Morningglory, Ivyleaf); experiment: Postemergence herbicidal evaluation; type: in vivo, Ipomoea hederacea; conditions: postemergence
Procedure, shortened: as §3

[9] = tested on: ABUTH (Velvetleaf); experiment: Preemergence herbicidal evaluation; type: in vivo, Abutilon theophrasti; conditions: rated 4-5 weeks after treatment, rating scale 0-9
Procedure, shortened: as §1

[10] = tested on: CYPSE (Flatsedge); experiment: Preemergence weed control under flooded paddy conditions; type: in vivo, Cyperus serotinus; conditions: rated 3-4 weeks after treatment
Procedure, shortened: as §2

[11] = tested on: AMBEL (Ragweed, Common); experiment: Postemergence herbicidal evaluation; type: in vivo, Ambrosia artemisifolia; conditions: postemergence
Procedure, shortened: as §3

[12] = tested on: ECHCG (Barnyardgrass); experiment: Preemergence herbicidal evaluation; type: in vivo, Echinochloa crus-galli; conditions: rated 4-5 weeks after treatment, rating scale 0-9
Procedure, shortened: as §1

[13] = tested on: GLXMAW (Soybean, Williams); experiment: Preemergence herbicidal evaluation; type: in vivo, Glycine max, (L.) Merr. cv Williams; conditions: rated 4-5 weeks after treatment, rating scale 0-9
Procedure, shortened: as §1

COCCN1C(=O)CSC1=Nc1cc(-n2c(=O)cc(C(F)(F)F)n(C)c2=O)c(F)cc1Cl [Compound 155, 3-{4-Chloro-2-fluoro-5-{[3-(2-methoxyethyl)-4-oxo-2-thiazolidinylidene]amino}phenyl}-1-methyl-6-(trifluoromethyl)-2,4(1H,3H)-pyrimidinedione]
5.0: herbicidal rating GLXMAW ([5]; rate 0.0313 kg/ha) | herbicidal rating GLXMAW ([5]; rate 0.0625 kg/ha)
0.0: Preemergence herbicidal rating AMBEL ([1]; rate 0.0625 kg/ha) | herbicidal effect rating, SAGPY ([3]; 0.0313 kg/ha) | herbicidal effect rating, SAGPY ([3]; 0.0625 kg/ha) | herbicidal effect rating, SAGPY ([3]; 0.1250 kg/ha) | herbicidal effect rating, SAGPY ([3]; 0.2500 kg/ha) | Preemergence herbicidal rating SETVI ([6]; rate 0.0625 kg/ha) | Preemergence herbicidal rating SETVI ([6]; rate 0.1250 kg/ha) | Preemergence herbicidal rating SETVI ([6]; rate 0.2500 kg/ha) | Preemergence herbicidal rating CASOB ([7]; rate 0.0625 kg/ha) | Preemergence herbicidal rating CASOB ([7]; rate 0.1250 kg/ha) | Preemergence herbicidal rating CASOB ([7]; rate 0.2500 kg/ha) | herbicidal effect rating, CYPSE ([10]; 0.0313 kg/ha) | herbicidal effect rating, CYPSE ([10]; 0.0625 kg/ha) | herbicidal effect rating, CYPSE ([10]; 0.1250 kg/ha) | herbicidal rating AMBEL ([11]; rate 0.0156 kg/ha) | herbicidal rating AMBEL ([11]; rate 0.0313 kg/ha) | herbicidal rating AMBEL ([11]; rate 0.0625 kg/ha) | Preemergence herbicidal rating ECHCG ([12]; rate 0.0625 kg/ha) | Preemergence herbicidal rating ECHCG ([12]; rate 0.1250 kg/ha) | Preemergence herbicidal rating ECHCG ([12]; rate 0.2500 kg/ha) | Preemergence herbicidal rating GLXMAW ([13]; rate 0.0625 kg/ha) | Preemergence herbicidal rating GLXMAW ([13]; rate 0.1250 kg/ha)
7.0: Preemergence herbicidal rating ABUTH ([9]; rate 0.2500 kg/ha)
9.0: herbicidal rating IPOHE ([8]; rate 0.0625 kg/ha)
2.0: Preemergence herbicidal rating AMBEL ([1]; rate 0.1250 kg/ha) | herbicidal rating IPOHE ([8]; rate 0.0156 kg/ha) | Preemergence herbicidal rating ABUTH ([9]; rate 0.0625 kg/ha)
4.0: Preemergence herbicidal rating AMBEL ([1]; rate 0.2500 kg/ha) | Preemergence herbicidal rating GALAP ([2]; rate 0.0625 kg/ha) | Preemergence herbicidal rating GALAP ([2]; rate 0.1250 kg/ha) | Preemergence herbicidal rating GALAP ([2]; rate 0.2500 kg/ha) | herbicidal rating ZEAMX ([4]; rate 0.0156 kg/ha) | herbicidal rating ZEAMX ([4]; rate 0.0313 kg/ha) | herbicidal rating ZEAMX ([4]; rate 0.0625 kg/ha) | herbicidal rating GLXMAW ([5]; rate 0.0156 kg/ha) | herbicidal rating IPOHE ([8]; rate 0.0313 kg/ha) | Preemergence herbicidal rating ABUTH ([9]; rate 0.1250 kg/ha) | Preemergence herbicidal rating GLXMAW ([13]; rate 0.2500 kg/ha)

COc1ccc(CN2C(=O)CSC2=Nc2cc(-n3c(=O)cc(C(F)(F)F)n(C)c3=O)c(F)cc2Cl)c(OC)c1 [Compound 139, 3-{4-Chloro-5-{[3-(2,4-dimethoxybenzyl)-4-oxo-2-thiazolidinylidene]amino}-2-fluorophenyl}-1-methyl-6-(trifluoromethyl)-2,4(1H,3H)-pyrimidinedione]
4.5: herbicidal rating ZEAMX ([4]; rate 0.0156 kg/ha) | herbicidal rating ZEAMX ([4]; rate 0.0313 kg/ha)
2.0: Preemergence herbicidal rating CASOB ([7]; rate 0.1250 kg/ha)
6.5: herbicidal rating GLXMAW ([5]; rate 0.0313 kg/ha)
7.0: herbicidal rating GLXMAW ([5]; rate 0.0625 kg/ha) | Preemergence herbicidal rating SETVI ([6]; rate 0.2500 kg/ha) | herbicidal rating AMBEL ([11]; rate 0.0625 kg/ha)
0.0: Preemergence herbicidal rating AMBEL ([1]; rate 0.0156 kg/ha) | Preemergence herbicidal rating AMBEL ([1]; rate 0.0625 kg/ha) | Preemergence herbicidal rating GALAP ([2]; rate 0.0156 kg/ha) | Preemergence herbicidal rating GALAP ([2]; rate 0.0313 kg/ha) | Preemergence herbicidal rating GALAP ([2]; rate 0.0625 kg/ha) | Preemergence herbicidal rating GALAP ([2]; rate 0.1250 kg/ha) | Preemergence herbicidal rating GALAP ([2]; rate 0.2500 kg/ha) | herbicidal effect rating, SAGPY ([3]; 0.0313 kg/ha) | herbicidal effect rating, SAGPY ([3]; 0.0625 kg/ha) | herbicidal effect rating, SAGPY ([3]; 0.1250 kg/ha) | herbicidal effect rating, SAGPY ([3]; 0.2500 kg/ha) | Preemergence herbicidal rating SETVI ([6]; rate 0.0156 kg/ha) | Preemergence herbicidal rating SETVI ([6]; rate 0.0313 kg/ha) | Preemergence herbicidal rating SETVI ([6]; rate 0.0625 kg/ha) | Preemergence herbicidal rating CASOB ([7]; rate 0.0156 kg/ha) | Preemergence herbicidal rating CASOB ([7]; rate 0.0313 kg/ha) | Preemergence herbicidal rating ABUTH ([9]; rate 0.0156 kg/ha) | Preemergence herbicidal rating ABUTH ([9]; rate 0.0313 kg/ha) | Preemergence herbicidal rating ABUTH ([9]; rate 0.0625 kg/ha) | herbicidal effect rating, CYPSE ([10]; 0.1250 kg/ha) | herbicidal effect rating, CYPSE ([10]; 0.2500 kg/ha) | Preemergence herbicidal rating ECHCG ([12]; rate 0.0313 kg/ha) | Preemergence herbicidal rating ECHCG ([12]; rate 0.0625 kg/ha) | Preemergence herbicidal rating GLXMAW ([13]; rate 0.0156 kg/ha) | Preemergence herbicidal rating GLXMAW ([13]; rate 0.0625 kg/ha) | Preemergence herbicidal rating GLXMAW ([13]; rate 0.1250 kg/ha)
4.0: Preemergence herbicidal rating AMBEL ([1]; rate 0.2500 kg/ha)
1.0: Preemergence herbicidal rating AMBEL ([1]; rate 0.0313 kg/ha) | Preemergence herbicidal rating SETVI ([6]; rate 0.1250 kg/ha) | Preemergence herbicidal rating CASOB ([7]; rate 0.0625 kg/ha) | Preemergence herbicidal rating CASOB ([7]; rate 0.2500 kg/ha) | Preemergence herbicidal rating ECHCG ([12]; rate 0.0156 kg/ha) | Preemergence herbicidal rating ECHCG ([12]; rate 0.1250 kg/ha) | Preemergence herbicidal rating ECHCG ([12]; rate 0.2500 kg/ha) | Preemergence herbicidal rating GLXMAW ([13]; rate 0.0313 kg/ha) | Preemergence herbicidal rating GLXMAW ([13]; rate 0.2500 kg/ha)
9.0: herbicidal rating IPOHE ([8]; rate 0.0156 kg/ha) | herbicidal rating IPOHE ([8]; rate 0.0313 kg/ha) | Preemergence herbicidal rating ABUTH ([9]; rate 0.1250 kg/ha) | Preemergence herbicidal rating ABUTH ([9]; rate 0.2500 kg/ha) | herbicidal rating AMBEL ([11]; rate 0.0156 kg/ha) | herbicidal rating AMBEL ([11]; rate 0.0313 kg/ha)
5.0: herbicidal rating ZEAMX ([4]; rate 0.0625 kg/ha) | herbicidal rating IPOHE ([8]; rate 0.0625 kg/ha)
5.5: herbicidal rating GLXMAW ([5]; rate 0.0156 kg/ha)
3.0: Preemergence herbicidal rating AMBEL ([1]; rate 0.1250 kg/ha)
